According to the NIST ThermoML archive (doi:10.1016/j.jct.2006.03.015):
± gives the expanded uncertainty stated by the source.

What was measured:
[1] = Crystal; visual observation
[2] = mn = molality of the nth substance listed, in mol/kg; conditions: 101 kPa, Liquid; for apparent molar heat capacity: Flow calorimetry

CC(=O)N[C@@H](CC(N)=O)C(N)=O [(S)-2-acetamidosuccinamide]
Conditions | Normal melting temperature [°C]
[1] | 244 ± 3

CC(=O)NC(=O)[C@@H](N)Cc1ccc(O)cc1 [N-Acetyl-L-tyrosinamide]
Conditions | Normal melting temperature [°C]
[1] | 225 ± 2

CC(=O)NC(=O)[C@@H](N)Cc1ccc(O)cc1 [N-Acetyl-L-tyrosinamide] + O
[2]
Conditions | apparent molar heat capacity [J/K/mol] | mass density [kg/m3]
288.15 K, m1 = 0.01175 | 508.1 ± 67 | 999.692 ± 0.26
288.15 K, m1 = 0.012 | 504.2 ± 65 | 999.707 ± 0.26
288.15 K, m1 = 0.01302 | 504.9 ± 60 | 999.758 ± 0.26
288.15 K, m1 = 0.01344 | 509 ± 58 | 999.773 ± 0.26
288.15 K, m1 = 0.01395 | 505.4 ± 56 | 999.805 ± 0.26
288.15 K, m1 = 0.01495 | 502.3 ± 53 | 999.855 ± 0.26
288.15 K, m1 = 0.01591 | 501.9 ± 50 | 999.904 ± 0.26
288.15 K, m1 = 0.01705 | 500.4 ± 46 | 999.955 ± 0.26
288.15 K, m1 = 0.0179 | 501.6 ± 44 | 1000 ± 0.26
288.15 K, m1 = 0.01902 | 503.4 ± 42 | 1000.05 ± 0.26
288.15 K, m1 = 0.01984 | 502.6 ± 40 | 1000.1 ± 0.26
298.15 K, m1 = 0.01196 | 517 ± 66 | 997.637 ± 0.26
298.15 K, m1 = 0.013 | 517.7 ± 60 | 997.684 ± 0.26
298.15 K, m1 = 0.01383 | 515.6 ± 57 | 997.725 ± 0.26
298.15 K, m1 = 0.01493 | 517 ± 53 | 997.781 ± 0.26
298.15 K, m1 = 0.01497 | – | 997.785 ± 0.26
298.15 K, m1 = 0.01592 | 516.9 ± 50 | 997.83 ± 0.26
298.15 K, m1 = 0.017 | – | 997.885 ± 0.26
298.15 K, m1 = 0.01809 | 519.4 ± 44 | 997.94 ± 0.26
298.15 K, m1 = 0.01905 | – | 997.984 ± 0.26
298.15 K, m1 = 0.02018 | 511.5 ± 39 | 998.035 ± 0.26
313.15 K, m1 = 0.01197 | 542.3 ± 72 | 992.782 ± 0.28
313.15 K, m1 = 0.01299 | 543.8 ± 66 | 992.827 ± 0.28
313.15 K, m1 = 0.01401 | 543 ± 61 | 992.874 ± 0.28
313.15 K, m1 = 0.01501 | 545.3 ± 57 | 992.925 ± 0.28
313.15 K, m1 = 0.01596 | 546.3 ± 54 | 992.967 ± 0.28
313.15 K, m1 = 0.01693 | 541.4 ± 51 | 993.013 ± 0.28
313.15 K, m1 = 0.01787 | 543.5 ± 48 | 993.057 ± 0.28
313.15 K, m1 = 0.01892 | 542.6 ± 46 | 993.101 ± 0.28
328.15 K, m1 = 0.01201 | 553.5 ± 78 | 986.242 ± 0.3
328.15 K, m1 = 0.01295 | 552.2 ± 73 | 986.289 ± 0.3
328.15 K, m1 = 0.01394 | 549.9 ± 68 | 986.33 ± 0.3
328.15 K, m1 = 0.0149 | 556.4 ± 63 | 986.378 ± 0.3
328.15 K, m1 = 0.0159 | 554.4 ± 59 | 986.421 ± 0.3
328.15 K, m1 = 0.01694 | 552 ± 56 | 986.462 ± 0.3
328.15 K, m1 = 0.01796 | 555.6 ± 53 | 986.514 ± 0.3
328.15 K, m1 = 0.0189 | 555.1 ± 50 | 986.548 ± 0.3
